According to publication PMC10518255, “A first-in-class pan-lysyl oxidase inhibitor impairs stromal remodeling and enhances gemcitabine response and survival in pancreatic cancer” (Nature Cancer, 2023):
Several values for one entry are separate records, joined by “and”; a condition that tells them apart may be missing. Equal values may be shown once.

What was measured:
KPC CAFs [1] = test: 3D organotypic matrix contraction assay; type: cell-based, mouse; set-up: measured area of matrices: unit not given here; details: for measured area of matrices: per replicate, n = 3
Experimental: Fig. 3 PXS-5505 inhibition of CAF remodeling in vitro. a, Quantitative PCR with reverse transcription (qRT–PCR) showing in vitro comparison of KPC CAF relative expression of lysyl oxidase family members compared to KPC CCs from the same model (n = 3 biologically independent samples). Comparisons were determined by 2^–∆∆Ct approach. b, Representative images of 3D organotypic matrix contraction assay at days 2, 6 and 12 in the absence (gray) or presence (pink) of PXS-5505 (30 µM). Scale bars, 5 mm. Comparison of measured area of matrices between control and PXS-5505 treatment groups over time (n = 3 technical samples examined over three biologically independent samples). Data are mean ± s.d. c, Concentration of immature divalent DHLNL and mature trivalent Pyr collagen crosslinks determined by LC–MS from control and PXS-5505-treated organotypic matrices at day 12 (n = 3 technical samples examined over two biologically independent samples). Data are mean ± s.d. […] Data are presented as mean ± s.d. […] Comparison of number of CCs invaded per field of view (FOV) as determined by H&E and PanCK staining (nine images taken from three technical samples from each of three biologically independent contracted matrices), normalized to control. Data are mean ± s.d. Scale bars, 100 μm. […] Source data
High-purity rat tail collagen for 3D organotypic assays was acid extracted following previously published methodology. The 12-day organotypic assays were carried out as described previously. In brief, 2 × 10^5 KPC CAFs were embedded in 2.5 ml 1.5 mg ml^−1 rat tail collagen and allowed to remodel for 12 days in a six-well plate in DMEM supplemented with 10% FBS and 1% penicillin–streptomycin in 21% O2/5% CO2 (Extended Data Fig. 4a). For human pancreatic cancer CAFs, 3.45 × 10^5 cells were embedded into 1.25 ml 1.5 mg ml^−1 rat tail collagen and allowed to remodel for 12 days in a 12-well plate in IMDM supplemented with 4 mM glutamine and 10% FBS in 21% O2/5% CO2.
Extended Data Fig. 4 PXS-5505 inhibits collagen cross-linking by PDAC CAFs in vitro resulting in decreased cancer cell invasion. a. Schematic of organotypic matrix remodeling assay whereby CAFs are embedded into a 3D collagen matrix and growth media supplemented with or without PXS-5505 to inhibit lysyl oxidase family activity b. Chemical structures of lysyl oxidase family catalyzed hydroxyallysine or allysine residues and the subsequent divalent and trivalent bonds that are formed that can be quantified by mass spectrometry. c. Representative images of 3D organotypic matrix contraction by human pancreatic cancer CAFs at days 2, 6 and 12 in the absence (gray) and presence (pink) of PXS-5505 (30 µM). Scale bars = 5 mm. […] Data presented as mean values +/− SD. d. […] Data presented as mean values +/− SD. Relative fold expression of LOXL family members compared to LOX were determined by 2^–∆∆Ct approach. f. Schematic of cancer cell invasion in a 3D organotypic matrix assay whereby cancer cells are seeded to the surface of a remodeled collagen plug and placed at an air–liquid interface and allowed to invade into the remodeled matrix. […] Scale bars = 100 μm. g. […] Representative images of 3D organotypic matrix contraction assay at days 2, 6 and 12 of control (gray) and presence of PXS-5120 (blue) and PXS-5505 (pink). Scale bars = 5 mm. Comparison of measured area of matrices between control, PXS-5120 and PXS-5505 treatment groups (n = 3) over time. i. […] Representative images of invasion of KPC cancer cells into a contracted organotypic matrix as determined by H&E staining. […] Source data

KPC CAFs [2] = test: 2D cell viability assay (MTS); type: cell-based, mouse; details: for 2D cell viability (MTS assay): CAFs, replicates
Experimental: (§1) The 2D cell viability assays were performed using KPC CAFs and CCs seeded at (250 CAFs per well) and (500 CCs per well) in a 96-well plate. MTS solution (Promega) was added to the cells at a 1:20 dilution and cells were incubated at 37 °C for 2 h. Cell proliferation rates were measured by detecting the absorbance at 490 nm using a microplate reader. Three biological repeats were performed.
(§2) Data presented as mean values +/− SD. f. […] Data presented as mean values +/− SD. […] Data presented as mean values +/− SD. […] Data presented as mean values +/− SD. Ordinary one-way ANOVA for multiple comparison test performed. Source data

[3] = 2D cell viability assay (MTS); type: cell-based, mouse; details: mouse, replicates
Experimental: as §1, §2

KPC CCs = test: 2D cell viability assay (MTS); type: cell-based, mouse; details: for 2D cell viability (MTS assay): Cancer cells, replicates
Experimental: as §1, §2

[4] = test system: Lysyl oxidase family activity in aorta; test: Target engagement: lysyl oxidase family activity in freshly excised aorta, fluorometric activity assay (Fig. 2h); type: in vivo, rat; set-up: Lysyl oxidase family activity in freshly excised aorta: unit not given here; details: for Lysyl oxidase family activity in freshly excised aorta: single 30 mg/kg oral, individual samples, 30 mg/kg
Experimental: Data are presented as mean ± s.d. Two-tailed P value determined by unpaired, nonparametric t-test with a Mann–Whitney U-test correction (comparison to PBS control). h, Lysyl oxidase family activity measured in freshly excised aorta determined by fluorometric activity assay n = 19 (PBS), 5 (4–120 h) biological independent samples. Data presented as mean ± s.d. Two-tailed P value determined by unpaired, nonparametric t-test with a Mann–Whitney U-test correction (comparison to PBS control).
To confirm that PXS-5505 inhibits lysyl oxidase family enzymatic activity in tissues, target engagement experiments were performed following a single oral dose (30 mg kg^−1) in rats. […] Lysyl oxidase family activity was measured in two tissues; aorta (core tissue) and ear (peripheral tissue).

Cl.Cl.NC/C=C(\F)CS(=O)(=O)c1cccc2cccnc12.O [PXS-5505, (Z)-3-fluoro-4-(quinolin-8-ylsulfonyl)but-2-en-1-amine dihydrochloride monohydrate]
matrix contraction (KPC CAFs [1]; KPC CAFs, PXS-5505 30 µM, days 2, 6 and 12): no macroscopic effect on matrix contraction | measured area of matrices (KPC CAFs [1]; time 0 (unit of time not given)): 9.616 | measured area of matrices (KPC CAFs [1]; time 1 (unit of time not given)): 9.616 | measured area of matrices (KPC CAFs [1]; time 2 (unit of time not given)): 9.561 and 9.616 (2×) | measured area of matrices (KPC CAFs [1]; time 3 (unit of time not given)): 9.0213 and 9.561 and 9.616 | measured area of matrices (KPC CAFs [1]; time 4 (unit of time not given)): 6.466 and 5.808 and 8.601 | measured area of matrices (KPC CAFs [1]; time 5 (unit of time not given)): 4.597 and 3.696 and 6.971 | measured area of matrices (KPC CAFs [1]; time 6 (unit of time not given)): 3.299 and 2.6 and 5.471 | measured area of matrices (KPC CAFs [1]; time 7 (unit of time not given)): 2.954 and 2.216 and 4.409 | measured area of matrices (KPC CAFs [1]; time 8 (unit of time not given)): 2.6 and 1.886 and 3.595 | measured area of matrices (KPC CAFs [1]; time 9 (unit of time not given)): 1.96 and 1.5386 and 2.216 | measured area of matrices (KPC CAFs [1]; time 10 (unit of time not given)): 1.327 and 1.266 and 1.583 | measured area of matrices (KPC CAFs [1]; time 11 (unit of time not given)): 1.149 and 1.168 and 1.41 | measured area of matrices (KPC CAFs [1]; time 12 (unit of time not given)): 1.075 and 1.112 and 1.188 | 2D cell viability (MTS assay) (KPC CAFs [2]; PXS-5505 0.3 (unit not given)): 89.24 and 85.85 | 2D cell viability (MTS assay) (KPC CAFs [2]; PXS-5505 3 (unit not given)): 104.51 and 107.51 | 2D cell viability (MTS assay) (KPC CAFs [2]; PXS-5505 30 (unit not given)): 111.18 and 108.48 | 2D cell viability (MTS assay) (KPC CAFs [2]; PXS-5505 100 (unit not given)): 94.55 and 103.25 | 2D cell viability (MTS assay) (KPC CAFs [2]; PXS-5505 300 (unit not given)): 90.49 and 84.11 | effect on proliferation, 2D (KPC CAFs [2]; KPC CAFs, up to 300 µM): nor did it show any effect on proliferation | viability ([3]; KPC CAFs (2D culture), CAFs, PXS-5505 0.3 (unit inferred)): 100% | viability ([3]; KPC CAFs (2D culture), CAFs, PXS-5505 3 (unit inferred)): 94.8% | viability ([3]; KPC CAFs (2D culture), CAFs, PXS-5505 30 (unit inferred)): 101% | viability ([3]; KPC CAFs (2D culture), CAFs, PXS-5505 100 (unit inferred)): 89.7% | viability ([3]; KPC CAFs (2D culture), CAFs, PXS-5505 300 (unit inferred)): 92.6% | viability ([3]; KPC cancer cells (CCs, 2D culture), Cancer cells, PXS-5505 0.3 (unit inferred)): 100% | viability ([3]; KPC cancer cells (CCs, 2D culture), Cancer cells, PXS-5505 3 (unit inferred)): 109% | viability ([3]; KPC cancer cells (CCs, 2D culture), Cancer cells, PXS-5505 30 (unit inferred)): 110% | viability ([3]; KPC cancer cells (CCs, 2D culture), Cancer cells, PXS-5505 100 (unit inferred)): 102% | viability ([3]; KPC cancer cells (CCs, 2D culture), Cancer cells, PXS-5505 300 (unit inferred)): 98.8% | 2D cell viability (MTS assay) (KPC CCs; PXS-5505 0.3 (unit not given)): 100 and 109.75 | 2D cell viability (MTS assay) (KPC CCs; PXS-5505 3 (unit not given)): 110.09 and 116.21 | 2D cell viability (MTS assay) (KPC CCs; PXS-5505 30 (unit not given)): 104.54 and 100.45 | 2D cell viability (MTS assay) (KPC CCs; PXS-5505 100 (unit not given)): 94.9 and 85.15 | 2D cell viability (MTS assay) (KPC CCs; PXS-5505 300 (unit not given)): 94.9 and 96.71 | effect on proliferation, 2D (KPC CCs; KPC CCs, up to 300 µM): nor did it show any effect on proliferation | recovery of lysyl oxidase family activity in the aorta, of initial activity ([4]; rats, single 30 mg kg−1 oral, 24 h after dosing): approximately 50% | Lysyl oxidase family activity in freshly excised aorta ([4]; rats, 4 h): 15.4162 and 30.1157 and 25.1081 and 16.4125 and 13.2925 | Lysyl oxidase family activity in freshly excised aorta ([4]; rats, 24 h): 54.6033 and 26.1568 and 51.6931 and 36.2595 and 23.1592 | Lysyl oxidase family activity in freshly excised aorta ([4]; rats, 48 h): 62.6086 and 39.9999 and 48.7392 and 69.3553 and 56.8756 | Lysyl oxidase family activity in freshly excised aorta ([4]; rats, 120 h): 94.5071 and 44.5094 and 104.61 and 70.2729 and 55.285 | calculated block of all lysyl oxidase family activity ([4]; single daily oral dose of 30 mg kg−1, over a 24-h period): > 70%
